Measurements taken from publication PMC9564300, “Cytotoxic Mechanism of Momilactones A and B against Acute Promyelocytic Leukemia and Multiple Myeloma Cell Lines” (Cancers, 2022).
Values joined by “and” are separate entries in the source; they are usually repeats but may differ in a detail not shown here. Equal entries are not always repeated. Values belong to the compound of their own block, whether it stands above or below them.

Key:
[1] = tested on: acute promyelocytic leukemia HL-60 cell line; test: Cell viability (MTT) assay on HL-60; type: cell-based; settings: Homo sapiens; for IC50: HL-60, 48 h
Protocol: (§1) In this assay, culture media was prepared by adding fetal bovine serum (10%), L-glutamine (5 mM), penicillin (100 IU/mL), and streptomycin (100 µg/mL) to IMDM (Sigma-Aldrich, St. Louis, MO, USA). The cells (5 × 10^3 cells/well) were seeded into a 96-well plate filled with 100 µL of culture media and placed in a CO2 incubator at 37 °C. After 24 h, the cells were treated with MA, MB, and MAB with different concentrations (0.5, 1, 5, and 10 µM) for 48 h. Subsequently, 10 µL of the MTT solution (5 mg/mL, Sigma-Aldrich) was pipetted into each well. The cells were continuously incubated for 4 h. Finally, 100 µL of cell lysis buffer (10% SDS in 0.01 M HCl) was applied to dissolve the colored formazan crystals. Culture media instead of momilactones was used as the negative control. Meanwhile the drugs consisting of doxorubicin, all-trans retinoic acid (ATRA), the mixture of ATRA and arsenic trioxide (ATRA/ATO) (1:1, w/w), and bortezomib were tested as the standard inhibitors. The absorbance at 595 nm was scanned to determine the cell growth rate using a spectrophotometer (SpectraMAX M5, Molecular Devices, Sunnyvale, CA, USA). All tests were performed with three replications. The cytotoxic activity (% inhibition) of momilactones and/or inhibitors on the tested cell lines was as follows:Inhibition (%) = (ANC − AS)/ANC × 100(1) where ANC: absorbance of reaction with negative control, and AS: absorbance of reaction with momilactone and/or inhibitor.
(§2) Dose-responding curves and IC50 values (the required concentration for inhibiting 50% of cell viability) of momilactones and the standard inhibitors for cytotoxicity against tested cell lines were established. A lower IC50 indicates a stronger cytotoxic activity.

[2] = tested on: non-cancerous MeT-5A cell line; test: Cell viability (MTT) assay on MeT-5A; type: cell-based; settings: Homo sapiens, 48 h
Protocol: as §1, §2

[3] = tested on: multiple myeloma U266 cell line; test: Cell viability (MTT) assay on U266; type: cell-based; settings: Homo sapiens; for IC50: U-266, U266, 48 h
Protocol: as §1, §2

[4] = tested on: acute promyelocytic leukemia HL-60 cell line; test: Cell apoptosis (annexin V) assay on HL-60; type: cell-based, human; settings: HL-60, 5 µM
Protocol: (§3) The procedure was conducted in triplicate following Lam et al.. In brief, the cells (5 × 10^5 cells/well) were seeded into a 6-well plate filled with 1.5 mL of culture media and cultured in a CO2 incubator for 24 h with the same condition as mentioned in the MTT assay. The cells were then treated with momilactones at a concentration of 5 µM for 24 and 48 h. The non-treated cells were used as a control. Harvested cells were washed twice with cold phosphate-buffered saline (PBS). After that, the control and treated cells were incubated with annexin V-conjugated fluorescein isothiocyanate (FITC) (Biolegend, San Diego, CA, USA) and propidium iodide (PI) for 15 min at 25 °C. The obtained cells were dissolved in 450 µL of PBS. The solution was filtered by a nylon membrane to prevent cell clumping and kept on ice until analysis. The intensities of annexin V-FITC and PI and the percentages of apoptotic cells were instantly determined by a flow cytometer (BD, Franklin Lakes, NJ, USA).

[5] = tested on: phosphorylated p-38/total p-38; test: Western blotting in U266: phosphorylated p-38/total p-38; type: cell-based, human; settings: U266, 5 µM, control 1.00
Protocol: (§4) The cells (5 × 10^5 cells/well) were cultured and treated in triplicate following the same methods as the apoptosis and cell cycle assays. The cell lysates were conducted by rinsing cells with PBS, followed by adding 2× loading buffer two times (4% SDS, 10% 2-mercaptoethanol, 20% glycerol, 0.004% bromophenol blue, 0.125 M Tris-HCl, pH 6.8). The extracted protein ([…]) was subjected to sodium dodecyl sulfate (SDS)-polyacrylamide gels, applying 10% acrylamide, and subsequently transferred to a polyvinylidene fluoride membrane (Takara Bio, Shiga, Japan) by electroblotting. The membrane was blocked using 3% skim milk in PBS-0.05% Tween 20 (PBS-T) at 25 °C for 1 h. The incubation with each antibody (2 µg/mL) against anti-rabbit total p-38/MAPK, phosphorylated p-38/MAPK, BCL-2, procaspase-3, cleaved caspase-3, CDK1/cdc2, cyclin B1, and GAPDH (BioLegend, San Diego, CA, USA) in blocking buffer was conducted overnight at 4 °C. The following step was performed by washing the membrane with PBS-T in triplicate. The collected membrane was incubated with a secondary antibody of horseradish peroxidase-labeled goat anti-rabbit IgG (20 ng/mL) (IBL, Gunma, Japan) at 37 °C for 1 h. […] The relative expression (RE) was calculated by normalizing the intensity of targeted proteins to the intensity of the housekeeping protein GAPDH.

BCL-2 [6] = test: Western blotting in HL-60: BCL-2; type: cell-based, human; settings: HL-60, 5 µM
Protocol: as §4

CDK1 = test: Western blotting in HL-60: CDK1; type: cell-based, human; settings: HL-60, 5 µM, control 1.55
Protocol: as §4

[7] = tested on: cleaved caspase-3/procaspase-3; test: Western blotting in U266: cleaved caspase-3/procaspase-3; type: cell-based, human; settings: U266, 5 µM
Protocol: as §4

[8] = tested on: phosphorylated p-38/total p-38; test: Western blotting in HL-60: phosphorylated p-38/total p-38; type: cell-based, human; settings: HL-60, 5 µM, control 0.48
Protocol: as §4

[9] = tested on: acute promyelocytic leukemia HL-60 cell line; test: Cell cycle assay (PI, flow cytometry) on HL-60; type: cell-based, human; settings: HL-60, 5 µM
Protocol: (§5) The cells (5 × 10^5 cells/well) were cultured and treated in triplicate following the same methods as the apoptosis assay. The FxCycle PI/RNase staining solution was applied according to the manufacturer’s instructions (Calbiochem, Darmstadt, Germany). The cell cycle distribution at each phase of G1, S, and G2 was determined based on the cell’s DNA content. The percentages of cells in different phases of the cell cycle were quantified by a flow cytometer (BD, Franklin Lakes, NJ, USA). In brief, the collected cells were washed with ice-cold PBS. Subsequently, ice-cold PBS in pure ethanol was added to disperse the cells. The obtained solution was stored at 4 °C for 24 h for fixing. For analysis, the cells were incubated with 10 mg/mL of RNase A (Sigma-Aldrich) for 5 min on ice. The following step was conducted by adding 1 mg/mL of PI (in PBS). After incubating for 10 min at room temperature, the cells were dissolved in 450 µL of PBS. The solution was then filtered using a nylon membrane to remove cell clumping before analysis. Subsequently, the flow cytometric measurement was immediately performed.

[10] = tested on: multiple myeloma U266 cell line; test: Cell apoptosis (annexin V) assay on U266; type: cell-based, human; settings: U266, 5 µM
Protocol: as §3

BCL-2 [11] = test: Western blotting in U266: BCL-2; type: cell-based, human; settings: U266, 5 µM
Protocol: as §4

[12] = tested on: non-cancerous MeT-5A cell line; test: Cell apoptosis (annexin V) assay on MeT-5A; type: cell-based, human; settings: 5 µM
Protocol: as §3

[13] = tested on: non-cancerous MeT-5A cell line; test: Cell cycle assay (PI, flow cytometry) on MeT-5A; type: cell-based, human; settings: 5 µM, 48 h
Protocol: as §5

[14] = tested on: cleaved caspase-3/procaspase-3; test: Western blotting in HL-60: cleaved caspase-3/procaspase-3; type: cell-based, human; settings: HL-60, 5 µM, control 0.17
Protocol: as §4

cyclin B1 = test: Western blotting in HL-60: cyclin B1; type: cell-based, human; settings: HL-60, 5 µM, control 1.17
Protocol: as §4

IC50 [1]: 3.99 ± 0.16 µM
SMILES: CC1=C(/C=C/C(C)=C/C=C/C(C)=C/C(=O)O)C(C)(C)CCC1 [ATRA, all-trans retinoic acid, reference compound]

IC50 [3]: 0.24 ± 0.01 µM
IC50 [1]: 5.22 ± 0.15 µM
SMILES: COc1cccc2c1C(=O)c1c(O)c3c(c(O)c1C2=O)C[C@@](O)(C(=O)CO)C[C@@H]3O[C@H]1C[C@H](N)[C@H](O)[C@H](C)O1 [Doxorubicin, doxorubicin, reference compound]
inhibition at 10 µM [2]: 49.2 ± 6.17%

SMILES: C=C[C@]1(C)CC[C@@H]2C(=C[C@H]3OC(=O)[C@@]4(C)C(=O)CC[C@@]2(C)[C@@H]34)C1 [MA, momilactone A]
inhibition at 10 µM [2]: 28.5 ± 2.93%
inhibition at 10 µM ([3]; U-266, U266, 10 µM, 48 h, read-out: U266 inhibition percentage at 10 µM): 41%
inhibition at 10 µM ([1]; HL-60, 10 µM, 48 h, read-out: HL-60 inhibition percentage at 10 µM): 30.2%

IC50 [3]: 5.09 ± 0.58 µM
IC50 [1]: 4.49 ± 0.34 µM
SMILES: C=C[C@]1(C)CC[C@@H]2C(=C[C@H]3OC(=O)[C@]4(C)[C@H]3[C@]23CC[C@]4(O)OC3)C1 [MB, momilactone B]
% apoptosis (FITC+) ([4]; 24 h): 1.1%
FITC- cells ([4]; 24 h): 98.9%
increase in apoptotic process over the control ([4]; 24 h): 1.30 fold
% apoptosis (FITC+) ([4]; 48 h): 40.5%
FITC- cells ([4]; 48 h): 59.5%
RE of phosphorylated p-38/total p-38 ([5]; 24 h): 2.47
RE of phosphorylated p-38/total p-38 ([5]; 48 h): 2.35
BCL-2 RE value, fold lower than the control (BCL-2 [6]; 24 h): 1.92 fold
BCL-2 RE value, fold lower than the control (BCL-2 [6]; 48 h): 2.32 fold
RE of CDK1 (CDK1; 24 h): 1.10
RE of CDK1 (CDK1; 48 h): 0.75
inhibition at 10 µM [2]: 38 ± 2.29%
increase of cleaved caspase-3/procaspase-3 expression over the control ([7]; 24 h): 5.33 times
increase of cleaved caspase-3/procaspase-3 expression over the control ([7]; 48 h): 8.83 times
relative expression (RE) of phosphorylated p-38/total p-38 ([8]; 24 h): 1.15
relative expression (RE) of phosphorylated p-38/total p-38 ([8]; 48 h): 0.96
cells in G2 phase ([9]; 24 h): 30.1%
cells in G2 phase ([9]; 48 h): 29.2%
% apoptosis (FITC+) ([10]; 24 h): 16.9%
FITC- cells ([10]; 24 h): 83.1%
% apoptosis (FITC+) ([10]; 48 h): 18.0%
FITC- cells ([10]; 48 h): 82.0%
inhibition of BCL-2 expression compared to the control (BCL-2 [11]; 24 h): 2.37 times
decrease of BCL-2 expression over the control (BCL-2 [11]; 48 h): 4.41 fold
% apoptosis (FITC+) ([12]; 24 h): 2.9% and 2.87%
FITC- cells ([12]; 24 h): 97.1%
% apoptosis (FITC+) ([12]; 48 h): 10.3%
FITC- cells ([12]; 48 h): 89.7%
increase in cell apoptosis compared to the non-treated control ([12]; 48 h): 2.67 fold
increase of cell percentage of sub-G1 compared to the untreated control [13]: 2.59 times
RE of cleaved caspase-3/procaspase-3 ([14]; 24 h): 0.56
RE of cleaved caspase-3/procaspase-3 ([14]; 48 h): 0.77
RE of cyclin B1 (cyclin B1; 24 h): 0.80
RE of cyclin B1 (cyclin B1; 48 h): 0.69

IC50 [3]: 0.008 µM
SMILES: CC(C)C[C@H](NC(=O)[C@H](Cc1ccccc1)NC(=O)c1cnccn1)B(O)O [bortezomib, reference compound]
